Reference: patent publication US12280047B2, “Treatment of aneurysms” (Georgia State Research Foundation, Inc., priority 2017, dated 2025)

Assays:
Format in all cases: in vivo
[1] = tested on: ApoE−/− and ApoE−/−/IDO−/− mice; experiment: AngII-induced AAA after reciprocal bone marrow transplants; details: AngII 1000 ng/min per kg, 4 weeks
Experimental: Bone marrow transplantation was performed as described previously (Lukasova M, et al., Nicotinic acid inhibits progression of atherosclerosis in mice through its receptor GPR109A expressed by immune cells. J Clin Invest. (2011) 121:1163-73; Duran-Struuck R and Dysko R C. Principles of bone marrow transplantation (BMT): providing optimal veterinary and husbandry care to irradiated mice in BMT studies. J Am Assoc Lab Anim Sci. (2009) 48:11-22). Bone marrow was obtained aseptically from femora and tibiae of ApoE^−/− or ApoE^−/−/IDO^−/− mice. Cells (5×10^6/mouse) were resuspended in sterile PBS and transplanted by intravenous infusion into lethally irradiated (10 Gy) ApoE^−/− or ApoE^−/−/IDO^−/− mice recipients 6 hours after irradiation at the age of 8 weeks.
(§1) To quantify AAA incidence and size, the maximum width of abdominal aorta was measure with Image Pro Plus software (Media Cybernetics). We quantified aneurysm incidence based on a definition of aneurysm as an external width of the suprarenal aorta that was increased by 50% or greater compared with aortas from saline-infused mice, as described previously (Sparks A R, et al., Imaging of abdominal aortic aneurysms. Am Fam Physician. (2002) 65:1565-70). The average diameter of the normal suprarenal aorta in control mice is 0.8 mm. We therefore set a threshold of 1.22 mm as evidence of aneurysm formation. […]

[2] = tested on: ApoE−/− and ApoE−/−/IDO−/− mice; experiment: AngII-induced AAA formation in ApoE−/− and ApoE−/−/IDO−/− mice; details: AngII 1000 ng/min/kg, 4 weeks
Description: IDO^−/− and ApoE^−/− mice were obtained from Jackson laboratory (Bar Harbor, Maine) in a C57BL/6 background. IDO^−/− mice were crossed with ApoE^−/− mice to generate ApoE^−/−/IDO^−/− mice. Mice were housed in temperature-controlled cages under a 12-hour light/dark cycle and given free access to water and normal chow. All procedures involving animals were approved by the Institutional Animal Care and Use Committee at the University of Oklahoma Health Sciences Center. […] Circ Res. (2014) 114:480-92.
as §1, with “mm.” for “mm. We therefore set a threshold of 1.22 mm as evidence of aneurysm formation.”
AngII-induced mouse AAA formation in the atherosclerotic-susceptible strain (ApoE^−/−) has become the most widely used model. […] To unravel the role of the Trp-Kyn pathway in AAA formation ApoE^−/−/IDO^−/− (double-knockout) mice were generated and the outcome of a 4-week AngII infusion (1000 ng/min/kg) in ApoE^−/− and ApoE^−/−/IDO^−/− mice was determined. […]

ApoE−/− mice = experiment: Acipimox preventing AngII-induced abdominal aortic aneurysm (Example 12)
Experimental: To evaluate whether acipimox has inhibitory effects on AngII-induced AAA formation, male ApoE^−/− mice at age eight weeks were administrated either 1) acipimox (0.1% wt) or 2) vehicle control (water) by drinking water. After four weeks, Alzet osmotic mini pumps (Model 2004) were implanted into each group. Pumps were filled either with 1) saline vehicle or 2) solutions of Ang II (Sigma Chemical Co., St. Louis, Missouri, USA) that delivered (subcutaneously) 1.44 mg/kg/day of Ang II for 28 days. Pumps were placed into the subcutaneous space of isoflurane anesthetized mice through a small incision in the back of the neck that was closed with surgical glue. All incision sites healed rapidly without the need for any medication.
To quantify AAA incidence and size, the maximum width of abdominal aorta was measured with Image Pro Plus software (Media Cybernetics). Aneurysm incidence was quantified based on a definition of aneurysm as an external width of the suprarenal aorta that was increased by 50% or greater compared with aortas from saline-infused mice. The average diameter of the normal suprarenal aorta in control mice is 0.8 mm. […]
Abdominal aorta dimeter was measured by ultrasound as described above.
The effect of acipimox on the speed of propagation (i.e. PWV), which is parameter for arterial stiffness, was analyzed.

Substance: Angiotensin II (DRVYIHPF; Angiotensin-2; UniProt P01019 25-32, looked up) [AngII, Angiotensin II (Sigma, A9525) infused to induce AAA in mice]
- AAA incidence ([1]; ApoE−/− mice transplanted with IDO−/− or IDO+/+ bone marrow cells): approximately 70%
- AAA incidence ([1]; ApoE−/−/IDO−/− mice transplanted with IDO−/− or IDO+/+ bone marrow cells): 20%
- incidence of AngII-induced AAA ([2]; ApoE−/− mice): 73%
- incidence of AngII-induced AAA ([2]; ApoE−/−/IDO−/− mice): 15%
- mortality rate (ApoE−/− mice; Ang II 1.44 mg/kg/day 28 days, with acipimox 0.1% wt or vehicle): 28.6%
- mice that developed AAA (AAA incidence) (ApoE−/− mice; Ang II 1.44 mg/kg/day s.c. 28 days, acipimox 0.1% wt or vehicle in drinking water, started four weeks before): Eighty
